Active and inactive are the calls of the source. The rule behind the calls is not given here.
Key:
[1] = Permeability of the compound across basolateral to apical membrane in human Caco-2 cells incubated for 2 hrs by LC-MS/MS analysis; type: ADME, cell-based; conditions: caco-2, 2 h
[2] = Permeability of the compound across apical to basolateral membrane in human Caco-2 cells incubated for 2 hrs by LC-MS/MS analysis
[3] = target: AP2-associated protein kinase 1 (Homo sapiens, UniProt Q2M2I8); assay: Inhibition of human AAK1 expressed in HEK293 cells assessed as suppression of AP2 phosphorylation measured after 3 hrs by Western blot analysis; type: cell-based
[4] = Permeability of the compound at pH 5.5 incubated for 4 hrs by PAMPA-based UV spectrophotometry; type: ADME; conditions: read-out: permeability
[5] = Permeability of the compound at pH 7.4 incubated for 4 hrs by PAMPA-based UV spectrophotometry; type: ADME; conditions: PAMPA, pH 7.4, read-out: permeability
[6] = Protein binding in human plasma assessed as unbound fraction at 10 uM measured after 5 hrs by equilibrium dialysis method
[7] = Protein binding in mouse plasma assessed as unbound fraction at 10 uM measured after 5 hrs by equilibrium dialysis method
[8] = target: T1, BMP-2-inducible protein kinase (Homo sapiens, UniProt Q9NSY1); assay: Inhibition of wild-type human partial length BIKE (S34 to N329 residues) expressed in bacterial expression system assessed as residual binding level at 1 uM by Kinomescan method relative to control
[9] = target: T2, MAP kinase-interacting serine/threonine-protein kinase 2 (Homo sapiens, UniProt Q9HBH9); assay: Inhibition of wild-type human partial length MKNK2 (G63 to S388 residues) expressed in mammalian expression system assessed as residual binding level at 1 uM by Kinomescan method relative to control
Target sequence in this assay (Q9HBH9 whole entry, looked up, the tested form may be a part): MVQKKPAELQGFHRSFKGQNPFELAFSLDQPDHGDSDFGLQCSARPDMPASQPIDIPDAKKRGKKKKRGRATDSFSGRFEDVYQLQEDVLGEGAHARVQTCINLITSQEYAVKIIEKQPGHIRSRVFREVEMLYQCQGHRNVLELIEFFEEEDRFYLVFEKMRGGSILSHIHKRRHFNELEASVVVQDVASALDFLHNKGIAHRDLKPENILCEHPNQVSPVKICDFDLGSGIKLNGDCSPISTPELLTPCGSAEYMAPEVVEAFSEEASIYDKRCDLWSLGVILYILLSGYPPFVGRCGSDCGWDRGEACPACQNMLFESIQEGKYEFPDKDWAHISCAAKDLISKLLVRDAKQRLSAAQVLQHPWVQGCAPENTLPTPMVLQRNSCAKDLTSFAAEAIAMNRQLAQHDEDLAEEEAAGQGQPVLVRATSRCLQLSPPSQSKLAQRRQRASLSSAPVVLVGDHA

[10] = target: SRSF protein kinase 3 (Homo sapiens) (UniProt Q9UPE1); assay: Inhibition of wild-type human partial length SRPK3 (P41 to P567 residues) expressed in bacterial expression system assessed as residual binding level at 1 uM by Kinomescan method relative to control
[11] = target: cAMP-dependent protein kinase catalytic subunit PRKX (Homo sapiens) (UniProt P51817); assay: Inhibition of wild-type human partial length PRKX (M1 to F358 residues) expressed in bacterial expression system assessed as residual binding level at 1 uM by Kinomescan method relative to control
[12] = target: T1, BMP-2-inducible protein kinase; assay: Inhibition of wild-type human partial length BIKE (S34 to N329 residues) expressed in bacterial expression system by Kinomescan method
Target sequence in this assay (Q9NSY1 whole entry, the tested form may be a part): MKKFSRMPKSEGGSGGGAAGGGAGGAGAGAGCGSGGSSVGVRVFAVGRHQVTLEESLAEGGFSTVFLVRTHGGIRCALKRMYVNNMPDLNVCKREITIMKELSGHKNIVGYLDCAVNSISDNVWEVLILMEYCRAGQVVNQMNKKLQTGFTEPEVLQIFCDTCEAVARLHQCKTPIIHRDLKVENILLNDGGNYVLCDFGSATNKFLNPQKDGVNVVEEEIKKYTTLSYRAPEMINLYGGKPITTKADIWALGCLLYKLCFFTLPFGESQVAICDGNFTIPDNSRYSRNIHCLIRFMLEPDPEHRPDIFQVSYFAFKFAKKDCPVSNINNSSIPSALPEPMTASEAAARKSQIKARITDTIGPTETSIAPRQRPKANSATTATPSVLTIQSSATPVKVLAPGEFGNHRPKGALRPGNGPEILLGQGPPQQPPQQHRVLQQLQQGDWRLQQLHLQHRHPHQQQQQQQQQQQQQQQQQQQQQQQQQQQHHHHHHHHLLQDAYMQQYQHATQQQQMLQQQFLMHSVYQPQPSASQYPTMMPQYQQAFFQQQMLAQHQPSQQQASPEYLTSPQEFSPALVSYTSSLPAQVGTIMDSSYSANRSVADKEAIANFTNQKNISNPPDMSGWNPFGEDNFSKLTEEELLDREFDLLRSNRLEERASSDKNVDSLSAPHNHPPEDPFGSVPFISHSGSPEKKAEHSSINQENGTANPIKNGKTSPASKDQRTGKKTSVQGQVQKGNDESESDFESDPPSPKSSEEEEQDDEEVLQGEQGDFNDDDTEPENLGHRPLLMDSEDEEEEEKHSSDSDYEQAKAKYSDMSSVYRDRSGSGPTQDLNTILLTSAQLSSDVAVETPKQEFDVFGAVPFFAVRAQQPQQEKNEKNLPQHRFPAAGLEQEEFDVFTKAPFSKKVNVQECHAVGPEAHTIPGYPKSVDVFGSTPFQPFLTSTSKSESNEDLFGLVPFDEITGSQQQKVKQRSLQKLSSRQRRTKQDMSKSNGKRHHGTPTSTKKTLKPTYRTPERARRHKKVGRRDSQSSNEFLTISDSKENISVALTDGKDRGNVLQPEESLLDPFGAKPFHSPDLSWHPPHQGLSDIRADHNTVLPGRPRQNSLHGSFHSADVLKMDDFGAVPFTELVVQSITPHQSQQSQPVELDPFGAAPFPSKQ

[13] = target: Citron Rho-interacting kinase (Homo sapiens, UniProt O14578); assay: Inhibition of CRIK (unknown origin) by Kinomescan method
[14] = target: MAP kinase-interacting serine/threonine-protein kinase 1 (Homo sapiens, UniProt Q9BUB5); assay: Inhibition of wild-type human full length MKNK1 (M1 to L424 residues) expressed in mammalian expression system by Kinomescan method
[15] = target: T2, MAP kinase-interacting serine/threonine-protein kinase 2; assay: Inhibition of wild-type human partial length MKNK2 (G63 to S388 residues) expressed in mammalian expression system by Kinomescan method
Target sequence in this assay (Q9HBH9 whole entry, the tested form may be a part): as the sequence (Q9HBH9 whole entry, looked up, the tested form may be a part) above

[16] = target: cAMP-dependent protein kinase catalytic subunit PRKX (Homo sapiens, UniProt P51817); assay: Inhibition of wild-type human partial length PRKX (M1 to F358 residues) expressed in bacterial expression system by Kinomescan method
[17] = target: Alpha-2A adrenergic receptor (Homo sapiens, UniProt P08913); assay: Inhibition of alpha 2A adrenergic receptor (unknown origin)
[18] = target: Alpha-2C adrenergic receptor (Homo sapiens, UniProt P18825); assay: Inhibition of alpha 2C adrenergic receptor (unknown origin)
[19] = target: AP2-associated protein kinase 1 (Mus musculus) (UniProt Q3UHJ0); assay: In vivo inhibition of AAK1 in C57BL6 mouse assessed as suppression of mu2 phosphorylation in brain lysate at 3 mg/kg, sc measured after 30 mins by Western blot analysis relative to control; type: functional, organism-based
[20] = Drug concentration in plasma of C57BL6 mouse at 0.3 mg/kg, sc; type: ADME, organism-based; conditions: in vivo
[21] = Drug concentration in plasma of C57BL6 mouse at 3 mg/kg, sc; type: ADME, organism-based; conditions: in vivo
[22] = Drug concentration in plasma of C57BL6 mouse at 10 mg/kg, sc; type: ADME, organism-based; conditions: in vivo
[23] = Drug concentration in plasma of C57BL6 mouse at 60 mg/kg, sc; type: ADME, organism-based; conditions: in vivo
[24] = test system: Mus musculus; assay: Antinociceptive activity against formalin-induced nociceptive behavior in C57BL6 mouse assessed as reduction in phase 2 hind paw flinching at 30 mg/kg, sc administered 60 mins prior to formalin challenge by formalin test; type: functional, organism-based
[25] = test system: Mus musculus; assay: Antinociceptive activity against formalin-induced nociceptive behavior in C57BL6 mouse assessed as reduction in phase 1 hind paw flinching at 30 mg/kg, sc administered 60 mins prior to formalin challenge by formalin test; type: functional, organism-based
[26] = test system: Rattus norvegicus; assay: Reversal of chronic constriction injury-induced cold allodynia in Sprague-Dawley rat model of neuropathic pain at 60 mg/kg, sc measured up to 180 mins relative to control; type: functional; conditions: time min <=180
[27] = test system: Rattus norvegicus; assay: Reversal of chronic constriction injury-induced mechanical allodynia in Sprague-Dawley rat model of neuropathic pain at 60 mg/kg, sc measured up to 180 mins relative to control; type: functional; conditions: time min <=180
[28] = test system: Rattus norvegicus; assay: Antinociceptive activity in Sprague-Dawley rat model of chronic constriction injury-induced neuropathic pain assessed as reduction in thermal hyperalgesia 3 mg/kg, sc by Von Frey test relative to control; type: functional; set-up: scale not given: the % may be the effect or the level left
[29] = Drug concentration in plasma of Sprague-Dawley rat model of chronic constriction injury-induced neuropathic pain at 1 mg/kg, sc; type: ADME, organism-based; conditions: in vivo
[30] = Drug concentration in plasma of Sprague-Dawley rat model of chronic constriction injury-induced neuropathic pain at 10 mg/kg, sc; type: ADME, organism-based; conditions: in vivo
[31] = Drug concentration in brain of Sprague-Dawley rat model of chronic constriction injury-induced neuropathic pain at 1 mg/kg, sc; type: ADME, organism-based; conditions: in vivo, read-out: Ct
[32] = Unbound drug concentration in plasma of Sprague-Dawley rat model of chronic constriction injury-induced neuropathic pain at 10 mg/kg, sc; type: ADME, organism-based; conditions: in vivo
[33] = Unbound drug concentration in plasma of Sprague-Dawley rat model of chronic constriction injury-induced neuropathic pain at 30 mg/kg, sc; type: ADME, organism-based; conditions: in vivo
[34] = Unbound drug concentration in brain of Sprague-Dawley rat model of chronic constriction injury-induced neuropathic pain at 1 mg/kg, sc; type: ADME, organism-based; conditions: in vivo
[35] = Unbound drug concentration in brain of Sprague-Dawley rat model of chronic constriction injury-induced neuropathic pain at 3 mg/kg, sc; type: ADME, organism-based; conditions: in vivo
[36] = Unbound drug concentration in brain of Sprague-Dawley rat model of chronic constriction injury-induced neuropathic pain at 10 mg/kg, sc; type: ADME, organism-based; conditions: in vivo
[37] = Unbound drug concentration in brain of Sprague-Dawley rat model of chronic constriction injury-induced neuropathic pain at 30 mg/kg, sc; type: ADME, organism-based; conditions: in vivo
[38] = Induction of motor coordination impairment in Sprague-Dawley rat at 60 mg/kg, sc measured up to 180 mins by rotarod test; type: organism-based; conditions: in vivo, 3 h
[39] = Drug concentration in Sprague-Dawley rat plasma at 10 mg/kg, sc measured after 190 mins; type: ADME, organism-based

AP2-associated protein kinase 1, sequence (Q2M2I8 whole entry): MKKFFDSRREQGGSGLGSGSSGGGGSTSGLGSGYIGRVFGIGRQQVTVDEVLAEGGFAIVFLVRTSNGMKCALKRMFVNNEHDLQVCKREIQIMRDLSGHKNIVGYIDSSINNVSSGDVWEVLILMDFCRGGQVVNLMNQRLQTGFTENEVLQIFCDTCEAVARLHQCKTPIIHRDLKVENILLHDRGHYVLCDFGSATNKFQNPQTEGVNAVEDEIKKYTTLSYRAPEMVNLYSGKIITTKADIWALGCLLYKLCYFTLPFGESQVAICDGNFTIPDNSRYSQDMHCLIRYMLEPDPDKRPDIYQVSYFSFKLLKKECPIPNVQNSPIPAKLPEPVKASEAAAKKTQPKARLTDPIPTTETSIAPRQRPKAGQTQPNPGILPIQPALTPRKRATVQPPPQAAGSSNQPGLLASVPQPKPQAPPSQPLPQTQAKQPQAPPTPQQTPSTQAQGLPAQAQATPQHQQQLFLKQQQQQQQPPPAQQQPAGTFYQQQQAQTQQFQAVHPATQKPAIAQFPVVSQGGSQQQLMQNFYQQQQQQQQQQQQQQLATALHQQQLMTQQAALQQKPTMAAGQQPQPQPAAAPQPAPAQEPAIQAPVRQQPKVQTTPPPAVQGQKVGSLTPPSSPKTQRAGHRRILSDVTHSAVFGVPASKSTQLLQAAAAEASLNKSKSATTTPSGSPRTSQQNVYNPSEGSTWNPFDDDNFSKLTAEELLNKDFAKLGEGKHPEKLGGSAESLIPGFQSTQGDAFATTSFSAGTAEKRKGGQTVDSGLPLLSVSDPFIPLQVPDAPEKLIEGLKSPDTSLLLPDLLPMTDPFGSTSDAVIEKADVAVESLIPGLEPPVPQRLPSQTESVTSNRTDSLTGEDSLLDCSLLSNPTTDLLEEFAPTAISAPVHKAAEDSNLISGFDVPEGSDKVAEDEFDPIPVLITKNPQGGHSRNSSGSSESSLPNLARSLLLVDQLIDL
Alpha-2C adrenergic receptor, sequence (P18825 whole entry): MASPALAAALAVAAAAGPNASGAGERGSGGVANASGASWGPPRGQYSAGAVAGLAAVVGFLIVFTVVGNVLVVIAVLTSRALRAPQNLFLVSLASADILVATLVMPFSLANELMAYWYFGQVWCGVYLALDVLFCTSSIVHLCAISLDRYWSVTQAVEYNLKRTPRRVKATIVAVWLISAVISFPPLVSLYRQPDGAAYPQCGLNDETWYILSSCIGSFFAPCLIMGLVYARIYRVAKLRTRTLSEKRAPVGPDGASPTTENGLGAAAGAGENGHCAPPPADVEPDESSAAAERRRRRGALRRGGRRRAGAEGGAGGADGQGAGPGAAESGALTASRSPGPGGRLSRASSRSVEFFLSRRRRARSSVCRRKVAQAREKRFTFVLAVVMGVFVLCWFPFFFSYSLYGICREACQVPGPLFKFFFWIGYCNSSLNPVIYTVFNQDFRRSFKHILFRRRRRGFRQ
SRSF protein kinase 3 (Homo sapiens), sequence (Q9UPE1 whole entry, the tested form may be a part): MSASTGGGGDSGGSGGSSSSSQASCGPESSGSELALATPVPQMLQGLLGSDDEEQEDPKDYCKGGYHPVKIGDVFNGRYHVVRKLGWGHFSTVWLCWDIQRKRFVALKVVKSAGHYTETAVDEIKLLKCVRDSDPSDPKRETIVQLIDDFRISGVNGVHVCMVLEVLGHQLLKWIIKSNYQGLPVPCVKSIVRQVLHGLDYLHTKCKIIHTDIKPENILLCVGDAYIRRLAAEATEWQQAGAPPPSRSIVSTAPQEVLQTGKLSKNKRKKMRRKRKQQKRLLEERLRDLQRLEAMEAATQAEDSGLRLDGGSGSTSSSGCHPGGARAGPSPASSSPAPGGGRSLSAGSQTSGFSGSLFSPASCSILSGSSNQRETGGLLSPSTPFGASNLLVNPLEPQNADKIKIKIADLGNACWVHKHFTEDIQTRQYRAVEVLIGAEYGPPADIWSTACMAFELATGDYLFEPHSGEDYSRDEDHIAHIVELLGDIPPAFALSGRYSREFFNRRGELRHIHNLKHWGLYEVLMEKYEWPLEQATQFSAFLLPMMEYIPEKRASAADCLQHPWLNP
cAMP-dependent protein kinase catalytic subunit PRKX (Homo sapiens), sequence (P51817 whole entry, the tested form may be a part): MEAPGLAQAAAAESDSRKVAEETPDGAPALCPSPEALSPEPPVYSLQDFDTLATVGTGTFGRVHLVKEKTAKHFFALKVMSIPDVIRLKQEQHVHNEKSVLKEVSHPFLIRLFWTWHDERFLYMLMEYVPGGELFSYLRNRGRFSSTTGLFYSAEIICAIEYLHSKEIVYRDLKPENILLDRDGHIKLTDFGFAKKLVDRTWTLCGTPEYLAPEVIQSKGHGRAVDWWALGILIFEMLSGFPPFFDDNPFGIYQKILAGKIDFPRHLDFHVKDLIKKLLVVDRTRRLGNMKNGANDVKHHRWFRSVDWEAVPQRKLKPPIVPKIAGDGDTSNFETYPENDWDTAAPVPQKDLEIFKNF
cAMP-dependent protein kinase catalytic subunit PRKX, sequence (P51817 whole entry, the tested form may be a part): as above

In the case of `CC(C)C[C@@H](N)C(=O)Nc1ccc(-c2cnco2)c(OC(F)F)c1`, the permeability [1] is reported as 113 10^-6 cm/s, the Papp A→B at 2 h [2] is reported as 12.9 ×10⁻⁶ cm/s and the IC50 [3] is reported as 51 nM. It also gave a Papp at 4 h [4] of 91.8 ×10⁻⁶ cm/s, a Papp at 4 h [5] of 96.7 ×10⁻⁶ cm/s and a fraction unbound at 5 h, 10 µM [6] of 0.038. For the same molecule, the fraction unbound at 5 h, 10 µM [7] was 0.041, the Activity [8] was 6.2% and the Activity [9] was 1.4%. It also gave an Activity [10] of 7.6%, an Activity [11] of 19% and an IC50 [12] of 120 nM. The IC50 [13] was 120 nM, the IC50 [14] was 507 nM and the IC50 [15] was 428 nM. It also gave an IC50 [16] of 326 nM, an IC50 [17] greater than 30000 nM and an IC50 [18] greater than 30000 nM. The inhibition [19] was 13%, the concentration [20] was 400 nM and the concentration [21] was 2600 nM. For the same molecule, the concentration [22] was 9100 nM, the concentration [23] was 77000 nM and the Activity [24] was “Active”. The Activity [25] was “Active”, the Activity [26] was 49% and the Activity [27] was 42%. The Activity [28] was 35%, the concentration [29] was 400 nM and the concentration [30] was 11000 nM. For the same molecule, the concentration [31] was 350 nM, the “Cp(f)” value [32] was 220 nM and the “Cp(f)” value [33] was 1040 nM. The “Drug uptake(free)” value [34] was 0.01 µM, the “Drug uptake(free)” value [35] was 0.03 µM and the “Drug uptake(free)” value [36] was 0.2 µM. The “Drug uptake(free)” value [37] was 0.92 µM, the Activity [38] was “Non-Toxic” and the concentration at 3.167 h [39] was 7400 nM.
